Laboratory results from patent US20240374558A1, “PREPARATION OF PHENE[…] […] STEREOISOMERS THEREOF AND PRECURSORS THEREOF” (priority 2022, published 2024).
Counter-ions that a name gives are not always drawn.

What was measured:
Kc4.3/ChIP2 = biological target: T1, Kc4.3/ChIP2 (Homo sapiens, UniProt Q9UK17); experiment: hKv4.3/hKChIP2 Potassium Channel Assay, Qube APC; format: cell-based; settings: Antagonist mode; HEK-Kv4.3/KChIP2; test compound
T1 construct: host or cells: HEK
T1 sequence (Q9UK17 1-655): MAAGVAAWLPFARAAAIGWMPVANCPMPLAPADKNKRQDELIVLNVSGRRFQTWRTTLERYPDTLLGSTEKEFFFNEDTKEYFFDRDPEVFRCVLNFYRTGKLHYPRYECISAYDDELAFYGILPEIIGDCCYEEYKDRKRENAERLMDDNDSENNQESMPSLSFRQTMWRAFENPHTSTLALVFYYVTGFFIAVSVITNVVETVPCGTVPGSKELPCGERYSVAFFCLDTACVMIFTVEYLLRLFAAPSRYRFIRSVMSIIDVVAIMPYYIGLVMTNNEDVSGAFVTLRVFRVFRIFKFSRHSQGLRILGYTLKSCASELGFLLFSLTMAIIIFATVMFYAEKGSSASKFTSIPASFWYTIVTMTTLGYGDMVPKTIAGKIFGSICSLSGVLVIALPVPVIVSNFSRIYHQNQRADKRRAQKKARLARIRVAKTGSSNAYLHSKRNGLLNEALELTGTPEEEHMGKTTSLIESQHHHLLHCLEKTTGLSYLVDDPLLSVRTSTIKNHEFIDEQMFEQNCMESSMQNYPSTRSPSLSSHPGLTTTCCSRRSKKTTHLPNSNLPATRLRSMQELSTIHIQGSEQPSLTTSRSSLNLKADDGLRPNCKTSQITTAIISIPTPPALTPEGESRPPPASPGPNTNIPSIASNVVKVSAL
T1 sequence (Q9NS61 1-270 partner): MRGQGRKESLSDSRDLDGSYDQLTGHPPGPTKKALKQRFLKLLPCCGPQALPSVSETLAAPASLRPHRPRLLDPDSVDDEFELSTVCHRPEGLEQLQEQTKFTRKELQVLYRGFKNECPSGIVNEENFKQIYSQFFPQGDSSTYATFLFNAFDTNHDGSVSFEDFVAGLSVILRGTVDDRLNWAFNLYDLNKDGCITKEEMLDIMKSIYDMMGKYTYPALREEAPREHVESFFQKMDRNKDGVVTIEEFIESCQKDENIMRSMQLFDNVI
Protocol: Electrophysiological assays were conducted to profile three compounds ((R)-methylone, (S)-methylone, or racemic methylone) for activities on the ion channel targets specified below using the Qube electrophysiological platform. Where presented, IC50 values were determined by a non-linear, least squares regression analysis. Reference standards were run as an integral part of each assay to ensure the validity of the results obtained.
(§1) Ion Channels tested were Eurofins Panel Part Number: CPROFullQB2DR Voltage-Gated Sodium: HEK-Nav1.5 (Peak), HEK-Nav1.5 (Late, Antagonist) Voltage-Gated Potassium: HEK-Kv4.3/KChIP2, CHO-hERG, CHO-KCNQ1/minK Voltage-Gated Calcium: HEK-Cav1.2 Inward-Rectifying Voltage-Gated Potassium: HEK-Kir2.1.
Methods employed in this study have been developed and validated with reliability and reproducibility by Eurofins. Assays were performed under conditions below. [0217] hNavL.5 Sodium Channel Assay—Qube APC Onset and steady state block of peak Nay1.5 current is measured using a pulse pattern, repeated every 5 sec, consisting of a hyperpolarizing pulse to −120 mV for a 200 ms duration, depolarization to −15 mV amplitude for a 40 ms duration, followed by step to 40 mV for 200 ms and finally a 100 ms ramp (1.2 V/s) to a holding potential of −80 mV. Peak current is measured during the step to −15 mV. […] Onset and steady state block of hKv4.3 current is measured using a pulse pattern from −80 mV to 40 mV amplitude for a 110 ms duration, and finally a 100 ms ramp (1.2 V/s) to −80 mV. […] [0220] hNav1.5 Late Current Sodium Channel Assay—Qube APC Onset and steady state block of Late Nay1.5 current is measured using a pulse pattern, repeated every 5 sec, consisting of a hyperpolarizing pulse to −120 mV for a 200 ms duration, depolarization to −15 mV amplitude for a 40 ms duration, followed by step to 40 mV for 200 ms and finally a 100 ms ramp (1.2 V/s) to a holding potential of −80 mV. Late current is measured as charge current elicited during the ramp with 50 nM ATXII.

hERG = biological target: T2, hERG (Homo sapiens, UniProt Q12809); experiment: hERG Potassium Channel Assay, Qube APC; format: cell-based; settings: Antagonist mode; CHO-hERG; test compound
T2 construct: host or cells: CHO-K1
T2 sequence (Q12809 whole entry): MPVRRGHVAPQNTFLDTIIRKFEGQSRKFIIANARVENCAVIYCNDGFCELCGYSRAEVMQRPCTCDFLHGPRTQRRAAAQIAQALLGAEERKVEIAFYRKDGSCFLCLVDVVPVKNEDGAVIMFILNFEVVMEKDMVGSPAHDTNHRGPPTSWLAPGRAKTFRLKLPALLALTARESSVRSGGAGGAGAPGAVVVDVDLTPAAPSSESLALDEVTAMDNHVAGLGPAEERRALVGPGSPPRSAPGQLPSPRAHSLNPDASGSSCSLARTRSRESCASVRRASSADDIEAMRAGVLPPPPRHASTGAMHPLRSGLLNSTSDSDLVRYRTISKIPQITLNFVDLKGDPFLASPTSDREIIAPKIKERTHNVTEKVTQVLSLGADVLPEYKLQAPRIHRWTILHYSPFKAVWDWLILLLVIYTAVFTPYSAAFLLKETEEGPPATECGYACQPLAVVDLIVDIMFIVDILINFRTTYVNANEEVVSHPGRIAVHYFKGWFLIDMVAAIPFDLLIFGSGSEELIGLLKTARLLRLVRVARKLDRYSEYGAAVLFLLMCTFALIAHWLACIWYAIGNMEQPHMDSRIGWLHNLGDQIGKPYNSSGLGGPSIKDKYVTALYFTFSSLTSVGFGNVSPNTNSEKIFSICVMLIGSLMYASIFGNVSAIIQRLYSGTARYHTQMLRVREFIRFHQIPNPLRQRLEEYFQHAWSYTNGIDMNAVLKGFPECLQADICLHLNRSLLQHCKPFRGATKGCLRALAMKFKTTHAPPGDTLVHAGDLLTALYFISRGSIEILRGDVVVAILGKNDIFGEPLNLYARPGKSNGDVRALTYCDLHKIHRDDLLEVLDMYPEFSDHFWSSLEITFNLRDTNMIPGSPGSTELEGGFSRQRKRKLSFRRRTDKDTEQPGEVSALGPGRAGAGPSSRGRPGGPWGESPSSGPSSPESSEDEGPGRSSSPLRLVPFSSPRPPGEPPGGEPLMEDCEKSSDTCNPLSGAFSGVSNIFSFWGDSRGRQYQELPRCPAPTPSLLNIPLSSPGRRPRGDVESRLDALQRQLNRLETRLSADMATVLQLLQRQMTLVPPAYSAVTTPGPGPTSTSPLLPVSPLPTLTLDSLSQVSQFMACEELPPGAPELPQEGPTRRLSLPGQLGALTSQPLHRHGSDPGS
Protocol: Where presented, IC50 values were determined by a non-linear, least squares regression analysis.
Recombinant HEK-293 cells stably transfected with human NavL.5 cDNA, recombinant HEK293 cell line expressing the human Cavl.2 (L-type voltage gated calcium channel, hCavl.2 alC/02a/a281, and recombinant CHO-K1 cells stably transfected with human hERG cDNA were used separately in each of these assays.
as §1
hERG Potassium Channel Assay—Qube APC After whole cell configuration is achieved, the cells are held at −80 mV. Cells are held at this voltage for 50 ms to measure the leak current, which is subtracted from the tail current on-line. The cells are depolarized to +40 mV for 500 ms and then to −80 mV over a 100 ms ramp to elicit the hERG tail current. This paradigm is delivered once every 8s to monitor the current amplitude.

## CN[C@H](C)C(=O)c1ccc2c(c1)OCO2 [(R)-methylone]
Kc4.3/ChIP2
  Estimated IC50: N/C (N/C indicates observed mean inhibition was <25%)
hERG
  Estimated IC50: N/C (N/C indicates observed mean inhibition was <25%)

## CN[C@@H](C)C(=O)c1ccc2c(c1)OCO2 [(S)-methylone]
Kc4.3/ChIP2
  Estimated IC50: N/C (N/C indicates observed mean inhibition was <25%)
hERG
  Estimated IC50: N/C (N/C indicates observed mean inhibition was <25%)

## CNC(C)C(=O)c1ccc2c(c1)OCO2 (centres unmarked) [Methylone HCl, methylone HCl]
Kc4.3/ChIP2
  Estimated IC50: N/C (N/C indicates observed mean inhibition was <25%)
